Experimental data published in paper PMC11323243, “Novel Inhibitors of SARS-CoV-2 RNA Identified through Virtual Screening” (Journal of Chemical Information and Modeling, 2024).
“Also recorded” adds a separate entry of the source.

What was measured:
[1] = test system: −1PRF element of SARS-CoV-2; assay: Dual-luciferase assay measuring frameshift efficiency; type: cell-based; conditions: Vero E6 cells; for effect on frameshift efficiency (in words): dual-luciferase assay; for reduction of frameshift efficiency: single nontoxic dose
[2] = test system: −1PRF element of SARS-CoV-2; conditions: previously identified; cited from earlier work
[3] = Cell viability (MTT) after 3 days of exposure; type: cell-based; conditions: African green monkey, Vero E6 cells, read-out: CC50, concentration reducing cell viability by 50%
[4] = test system: Omicron (BA.1) SARS-CoV-2; assay: Antiviral activity, plaque reduction assay on Vero E6 cells; type: cell-based; conditions: CC50/EC50, Vero E6 cells

SMILES | effect on frameshift efficiency (in words) [1] | CC50 at 3 days [3] [µM] | SI, selective index [4] | other results
Cc1cc2c(cc1CN1CC(CO)C(CN3CCN(C)CC3)C1)OCCO2 (centres unmarked) [Compound 782] | significant and improved reduction of frameshift efficiency compared to 194; also recorded: dose-dependent |  |  | reduction of frameshift efficiency [1]: 38%
CCNCC1CCN(c2c(F)cc3c(=O)c(C(=O)O)cn(CC)c3c2F)C1 (centres unmarked) [merafloxacin] |  |  |  | inhibition of the −1PRF of SARS-CoV-2 (in words) [2]: specific inhibition of the −1PRF of SARS-CoV-2
OC1CCCN(C2CCN(Cc3ncc[nH]3)CC2)C1 (centres unmarked) [Compound 21256088] |  | > 100 |  | 
Cc1nc(CN)cc(N2CCC(C(O)c3nccn3C)CC2)n1 (centres unmarked) [Compound 32807865] |  | > 100 |  | 
CN[C@@H]1[C@@H](O)[C@@H](O[C@@H]2[C@@H](O)[C@H](O[C@H]3O[C@H]([C@@H](C)O)[C@@H](O)[C@H](O)[C@H]3N)[C@@H](N)C[C@H]2N)OC[C@]1(C)O [geneticin] |  |  |  | inhibition of the −1PRF of SARS-CoV-2 (in words) [2]: specific inhibition of the −1PRF of SARS-CoV-2
OC1CN(Cc2cccc3cc[nH]c23)CCN(c2ccncc2)C1 (centres unmarked) [Compound 229] |  | 93 | 3.47 | 
Cc1cc2c(cc1CN1CC(CO)C(CN3CCCCCC3)C1)OCCO2 (centres unmarked) [Compound 194] | significant reduction in frameshift efficiency | > 100 | >3.46 | reduction of frameshift efficiency [1]: 23%
NCCc1ccc(CN2CCC(O)(c3cccc(C(F)(F)F)c3)CC2)cc1 [Compound 188] |  | 80.6 | 4.69 | 
OCC1CN(Cc2cc3c(cc2Cl)OCO3)CC1CN1CCCCCC1 (centres unmarked) [Compound 269] | nonsignificant reduction of frameshift efficiency; also recorded: reduction in frameshift, though not statistically significant |  |  | 
Clc1ccc2c(N3CCN(CCCN4CCN(c5ccnc6cc(Cl)ccc56)CC4)CC3)ccnc2c1 [piperaquine, reference compound] |  | 5.66 | 0.49 | 
